According to publication PMC8776894 (Communications Biology, 2022):

Legend:
[1] = tested on: CD45+F4/80+CD11b+MHCII+ microglia; test: Flow cytometry of primary microglia from brain; format: in vivo, mouse; conditions: MCAO/R mice, IF
Protocol: Brain samples were collected in sham or MCAO mice, digested with collagenase IV and DNase, and filtered with sterile cell strainers (Biologix, 70 µm). Single-cell suspensions were prepared after the removal of red blood cells by ammonium-chloride-potassium (ACK) lysis buffer and isolated leukocytes in brains by 30%, 37%, and 70% Percoll (GE Healthcare) density gradient centrifugation, respectively. Cell numbers were counted by a Coulter counter (Thermo Fisher). Cells were washed with buffer (PBS with 0.5% bovine serum albumin and 0.02% sodium azide) three times and subsequently stained with fluorochrome-conjugated monoclonal antibodies: PE Rat anti-Mouse CD45 (553081, BD Biosciences), FITC anti-mouse F4/80 antibody (123108, Biolegend), PerCP-Cyanine5.5 CD11b antibody (45-0112-82, Invitrogen), and APC anti-mouse I-A/I-E antibody (107614, Biolegend). Samples were analyzed using Flow Cytometry (CytoFLEX S). Subsequent analysis was performed with FlowJo software (Tree Star Inc., San Carlos, CA, USA). Total microglia were identified as CD45^+F4/80^+CD11b^+, M1-like microglia were identified as CD45 + F4/80 + CD11b + MHCII + .

[2] = tested on: MCAO mice; test: Mortality after MCAO; format: in vivo, mouse; conditions: vehicle 29.06, P >0.05 vs vehicle
Protocol: Experimental ischemic stroke was performed by MCAO using published protocols[63],[64] with some modifications. In detail, mice (8–10 weeks)[65] were deeply anesthetized with 1.5% isoflurane in a mixture of 30% O2 and 69% N2O. Conditions of the blood gas were maintained at constant levels throughout the operation (PO2, 120 ± 10 mmHg; PCO2, 35 ± 3 mmHg) and temperatures in the temporal muscle and rectum were also maintained at 37.5 ± 0.2°C and 37.0 ± 0.1°C, respectively. Body temperature was kept in the normal range (36.5–37.5 °C) with a heating lamp and a heating pad during surgery. All surgical supplies and instruments were sterilized. The […] (CCA) and the external carotid artery were then gently separated. The blood flow of CCA was blocked with a sterile nylon suture (No.: MSMC21B120PK50, Ruiwode Bio-technology Co., Ltd., China), which was inserted into middle cerebral artery from CCA. The mice in the sham group underwent the same surgery without a nylon suture. After 60 min, the suture was removed and the blood circulation was recovered, MCAO/R was induced. Regional CBF was monitored in all stroke animals by LSCI (PeriScan PSI System; PERIMED, Stockholm, Sweden) to confirm a successful occlusion. […]

[3] = VK stability in PBS (HPLC); format: physicochemical; conditions: pH 7.4, 37 °C, 750 rpm, 120 min, VK 0.735 mM (Fig. 1 legend 73.5 nM), HPLC-UV 215 nm, peak area relative to 0 min, at least triplicate
Protocol: Proteolytic degradation of peptide-based drugs is generally considered as the main defect to limit systemic therapeutic applications. Therefore, high-performance liquid chromatography (HPLC) was used to assess the stability of VK in PBS or plasma at physiological pH (7.4) and temperature (37 °C). […] For neuropharmacology, crossing the BBB is a remarkable challenge, and VK was labeled with FITC in the N-terminus. FITC-labeled VK was then administered to stroke mice. After 30 min, these mice were imaged by an in vivo imaging system. […] Brains were collected at 0, 30, 60, 90, and 120 min and the distribution of VK was observed. […] To further evaluate whether VK was a cell-penetrating peptide, the oxygen-glucose deprivation/reoxygenation (OGD/R) model simulated I/R […] was established in HT22 hippocampal neuron cells and FITC-labeled VK was incubated for 120 min.
VK in PBS or plasma was detected by quantifying the peak areas relative to the initial peak areas (0 min). All stability tests were performed at least in triplicate.

[4] = tested on: mice; test: Coagulation function (PT, APTT, TT, FIB) in acute toxicity test; format: in vivo, mouse; conditions: VK 1.5-384 mg/kg single i.p., after 14th day
Protocol: Platelet aggregation function test. Venous blood from (normal healthy rabbits) was collected in 3 mL sodium citrate anticoagulation vacuum plastic tubes. The collected venous blood was centrifuged for 10 min at 100 × g at 4℃ to obtain the upper plasma, and the platelet rich plasma (PRP) was prepared, centrifuged again for 10 min at 2000 × g at 4°C to draw the upper plasma, the platelet poor plasma (PPP) was prepared and […] to a platelet concentration of 3×10^8 cells/ml was counted. The adjusted PRP was placed into a four-channel platelet aggregation instrument (Agg RAM, Helena Laboratories, USA) to determine the 5 min maximum platelet aggregation rate with adenosine diphosphate (ADP), arachidonic acid (AA), thrombin, collagen (COL) , and platelet-activating factor (PAF) or saline as inducers (at a final […]
Acute toxicity test. Systemic acute toxicity test by peritoneal injection was performed according to the guideline provided by Center for Drug Evaluation and Research. In addition to the normal group, male mice were randomly divided into the treated groups received a single dose of 1.5 mg/kg, 6 mg/kg, 24 mg/kg, 96 mg/kg and 384 body weight of VK. […]
The obtained plasma was analyzed using an automatic coagulation apparatus (CA1500). […]

Gly-Arg-Pro-Hyp-Gly-Phe-Ser-Pro-Phe-Arg-Ile-Asp [VK, Vespakinin-M]
activation of microglia [1]: suppressed the excessive activation of microglia | Death rate (mortality) of MCAO mice ([2]; VK 150 μg/kg, 48 MCAO animals): 25% | Death rate (mortality) of MCAO mice ([2]; VK 300 μg/kg, 64 MCAO animals): 18.75% | degradation rate of VK in PBS [3]: 62.4% | four coagulation (PT, APTT, TT, FIB) [4]: No obvious change
